In patent US20220002279A1, “NOVEL IMIDAZOLE DERIVATIVE” (priority 2018, published 2022):
Converted amounts (≈) assume the structure as drawn.

Key:
[1] = biological target: T1, Escherichia coli LpxC enzyme (Escherichia coli, UniProt P0A725); test: Inhibitory activity on Escherichia coli LpxC enzyme (LCMS method); type: biochemical; details: LC-MS/MS detection; 3.1 nmol/L enzyme, 20 μmol/L substrate, pH 6.5, 120 min; read-out: IC50 (inhibitory activity on Escherichia coli LpxC enzyme, LCMS method)
T1 construct: made in house; host or cells: Escherichia coli
T1 sequence (P0A725 1-305): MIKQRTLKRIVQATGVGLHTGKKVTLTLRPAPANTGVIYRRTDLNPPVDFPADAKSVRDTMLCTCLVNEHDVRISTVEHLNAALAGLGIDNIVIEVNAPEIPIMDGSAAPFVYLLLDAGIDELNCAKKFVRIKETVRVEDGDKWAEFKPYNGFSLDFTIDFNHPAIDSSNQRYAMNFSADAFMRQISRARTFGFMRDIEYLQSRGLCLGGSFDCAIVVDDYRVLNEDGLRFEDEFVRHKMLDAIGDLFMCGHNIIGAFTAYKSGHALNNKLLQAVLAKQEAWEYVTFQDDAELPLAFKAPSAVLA
Description: Test Example 3 Evaluation of the Inhibitory Activity on Escherichia coli LpxC Enzyme (LCMS Method)
To assay the activity of Escherichia coli LpxC enzyme, LpxC was reacted with its substrate, UDP-3-O-(R-3-hydroxymyristoyl)-N-acetylglucosamine, and the amount of the reaction product was quantified by liquid chromatography tandem mass spectrometry.
Specifically, to 3.1 nmol/L Escherichia coli LpxC enzyme (as acquired by preparing chromosomal DNA from Escherichia coli, obtaining the Escherichia coli LpxC genes by PCR (polymerase chain reaction) using LpxC specific primer, and incorporating the genes into a vector, followed by expression using Escherichia coli), 20 μmol/L UDP-3-O-(R-3-hydroxymyristoyl)-N-acetylglucosamine (Alberta) was added, and the mixture was incubated at room temperature for 120 minutes. This reaction was performed in a 40 mmol/L-2-morpholinoethanesulfonic acid buffer solution (pH 6.5) containing 0.02% Brij 35, 25 nmol/L-zinc chloride, and 80 μmol/L-dithiothreitol. The reaction was terminated by the addition of acetonitrile containing 25 μmol/L-UDP-N-acetylglucosamine as an internal standard to the reaction mixture. Centrifugation was performed and the amount of the substrate and the reaction product in the supernatant was detected by liquid chromatography tandem mass spectrometry. An inhibition curve was obtained by performing the aforementioned reaction in the presence of various concentrations of test compounds. From this inhibition curve, the concentration of test compound at which the amount of the reaction product was suppressed by 50% (IC50 value) was determined, which was used as an index for the inhibitory activity on Escherichia coli LpxC enzyme.

[2] = tested on: Escherichia coli strain ATCC25922; test: Antimicrobial activity, MIC by broth microdilution; type: cell-based; details: ATCC25922, 18 h, cation-adjusted Mueller-Hinton broth, about 5×10^5 CFU/mL, 35° C., about 18 hours, read-out: MIC Escherichia coli ATCC25922
Procedure, shortened: (§1)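 MIC read by eye as the lowest drug level lacking visible growth after roughly 18 h at 35° C. Cells from heart infusion agar, set to McFarland 0.5 and diluted, were inoculated at about 5×10^5 CFU/mL into cation-adjusted Mueller-Hinton broth with compound, per adapted CLSI microdilution.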

[3] = tested on: Klebsiella pneumoniae strain ATCC13883; test: Antimicrobial activity, MIC by broth microdilution; type: cell-based; details: ATCC13883, cation-adjusted Mueller-Hinton broth, about 5×10^5 CFU/mL, 35° C., about 18 hours, read-out: MIC Klebsiella pneumoniae ATCC13883
Procedure, shortened: as §1

[4] = tested on: Pseudomonas aeruginosa strain ATCC27853; test: Antimicrobial activity, MIC by broth microdilution; type: cell-based; details: ATCC27853, 18 h, cation-adjusted Mueller-Hinton broth, about 5×10^5 CFU/mL, 35° C., about 18 hours, read-out: MIC Pseudomonas aeruginosa ATCC27853
Procedure, shortened: as §1

[5] = biological target: T2, Pseudomonas aeruginosa LpxC enzyme (Pseudomonas aeruginosa, UniProt P47205); test: Inhibitory activity on Pseudomonas aeruginosa LpxC enzyme (fluorescamine method); type: biochemical; details: fluorescamine detection; 3.6 nmol/L enzyme, 20 μmol/L substrate, pH 8.0, 60 min
T2 construct: made in house; host or cells: Escherichia coli
T2 sequence (P47205 1-303): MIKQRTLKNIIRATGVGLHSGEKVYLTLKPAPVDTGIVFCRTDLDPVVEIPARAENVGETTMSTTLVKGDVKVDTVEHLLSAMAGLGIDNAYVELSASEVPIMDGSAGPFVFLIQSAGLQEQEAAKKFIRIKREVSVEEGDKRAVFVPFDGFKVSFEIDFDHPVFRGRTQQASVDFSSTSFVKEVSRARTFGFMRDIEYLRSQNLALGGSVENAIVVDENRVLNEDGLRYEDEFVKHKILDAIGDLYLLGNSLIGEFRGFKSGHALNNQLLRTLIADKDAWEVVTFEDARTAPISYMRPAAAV
Description: Test Example 1 Evaluation of the Inhibitory Activity on Pseudomonas aeruginosa LpxC Enzyme (Fluoresamine Method)
To assay the activity of Pseudomonas aeruginosa LpxC enzyme, LpxC was reacted with its substrate, UDP-3-O-(R-3-hydroxydecanoyl)-N-acetylglucosamine, and the amount of the reaction product was quantified by the amino groups present in the product.
Specifically, to 3.6 nmol/L Pseudomonas aeruginosa LpxC enzyme (as acquired by preparing chromosomal DNA from Pseudomonas aeruginosa, obtaining the Pseudomonas aeruginosa LpxC genes by PCR (polymerase chain reaction) using LpxC specific primer, and incorporating the genes into a vector, followed by expression using Escherichia coli), 20 μmol/L UDP-3-O-(R-3-hydroxydecanoyl)-N-acetylglucosamine (Carbosynth) was added, and the mixture was incubated at room temperature for 60 minutes. This reaction was performed in a 40 mmol/L-HEPES buffer solution (pH 8.0) containing 0.02% Brij 35 and 25 nmol/L-zinc chloride. The reaction was terminated by the addition of 1.0 mg/mL-fluorescamine dissolved in a solvent obtained by mixing an equal amount of acetonitrile and dimethylformamide with the reaction mixture, and then, a 0.2 mol/L-sodium phosphate buffer solution (pH 8.0) was added thereto, and the amount of the reaction product was detected at an excitation wavelength/fluorescence wavelength=390 nm/495 nm. An inhibition curve was obtained by performing the aforementioned reaction in the presence of various concentrations of test compounds. From this inhibition curve, the concentration of test compound at which the amount of the reaction product was suppressed by 50% (IC50 value) was determined, which was used as an index for the inhibitory activity on Pseudomonas aeruginosa LpxC enzyme.

[6] = biological target: T1, Escherichia coli LpxC enzyme; test: Inhibitory activity on Escherichia coli LpxC enzyme (fluorescamine method); type: biochemical; details: fluorescamine detection; 3.1 nmol/L enzyme, 20 μmol/L substrate, pH 6.5, 120 min; read-out: IC50 (inhibitory activity on Escherichia coli LpxC enzyme, Fluoresamine method)
Procedure, shortened: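 LpxC reacted with UDP-3-O-(R-3-hydroxymyristoyl)-N-acetylglucosamine; product amine quantified after fluorescamine stop and pH 8.0 phosphate buffer addition, at 390 nm/495 nm. Inhibition curve built from a range of test compound concentrations.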

SMILES	IC50 [1] [µM]	MIC [2] [µg/mL]	MIC [3] [µg/mL]	MIC [4] [µg/mL]	IC50 [5] [µM]	IC50 [6] [µM]
C[C@H](O)c1nccn1[C@H](CN)c1cc(-c2ccc(C#C[C@@H]3[C@H]4CN(CCO)C[C@@H]34)cc2)on1 [Compound 22, (1S)-1-(1-{(1R)-2-Amino-1-[5-(4-{[(1R,5S,6s)-3-(2-hydroxyethyl)-3-azabicyclo[3.1.0]hexan-6-yl]ethynyl}phenyl)-1,2-oxazol-3-yl]ethyl}-1H-imidazol-2-yl)ethan-1-ol]	0.655	2 (≈ 4.47 µM)	4 (≈ 8.94 µM)	2 (≈ 4.47 µM)		
C[C@H](O)c1nccn1Cc1cc(-c2ccc(C#CC3CC3N)cc2)on1 (stereo in doubt) [Compound 9, (1S)-1-{1-[(5-(4-[(trans-2-aminocyclopropyl)ethynyl]phenyl}-1,2-oxazol-3-yl)methyl]-1H-imidazol-2-yl}ethan-1-ol]			4 (≈ 11.5 µM)	16 (≈ 45.9 µM)	0.0223	0.183
C[C@H](O)c1nccn1[C@H](CN)c1cc(-c2ccc(C#CC3(N)CC3)cc2)on1 [Compound 21, (1S)-1-{1-[(1R)-2-amino-1-(5-(4-[(1-aminocyclopropyl)ethynyl]phenyl}-1,2-oxazol-3-yl)ethyl]-1H-imidazol-2-yl}ethan-1-ol]	0.282	2 (≈ 5.3 µM)	8 (≈ 21.2 µM)	32 (≈ 84.8 µM)		
C[C@H](O)c1nccn1Cc1cc(-c2ccc(C#CC34CC(N)(C3)C4)cc2)no1 [Compound 28, (1S)-1-{1-[(3-(4-[(3-aminobicyclo[1.1.1]pentane-1-yl)ethynyl]phenyl}-1,2-oxazol-5-yl)methyl]-1H-imidazol-2-yl}ethan-1-ol]	0.0646	0.5 (≈ 1.34 µM)	2 (≈ 5.34 µM)	64 (≈ 171 µM)		
C[C@H](O)c1nccn1Cc1cc(-c2ccc(C#CCCCO)c(F)c2)on1 [Compound 2, 5-{2-fluoro-4-[3-({2-[(1S)-1-hydroxyethyl]-1H-imidazol-1-yl}methyl)-1,2-oxazol-5-yl]phenyl} pent-4-yn-1-ol]		1 (≈ 2.71 µM)	2 (≈ 5.41 µM)	64 (≈ 173 µM)	0.00692	0.0169
C[C@H](O)c1nccn1Cc1cc(-c2ccc(C#CCCCO)cc2F)on1 [Compound 3, 5-{3-fluoro-4-[3-({2-[(1S)-1-hydroxyethyl]-1H-imidazol-1-yl}methyl)-1,2-oxazol-5-yl]phenyl}pent-4-yn-1-ol]		0.5 (≈ 1.35 µM)	1 (≈ 2.71 µM)	32 (≈ 86.6 µM)	0.00436	0.0161
C[C@H](O)c1nccn1Cc1cc(-c2ccc(C#CC3CC3CO)cc2)on1 (stereo in doubt) [Compound 7, (1S)-1-(1-{[5-(4-{[trans-2-(hydroxymethyl)cyclopropyl]ethynyl}phenyl)-1,2-oxazol-3-yl]methyl}-1H-imidazol-2-yl)ethan-1-ol]		0.25 (≈ 0.688 µM)	0.5 (≈ 1.38 µM)	16 (≈ 44 µM)	0.00444	0.0154
C[C@H](O)c1nccn1Cc1cc(-c2ccc(C#C[C@@H]3[C@H]4CNC[C@@H]34)cc2)on1 [Compound 10, (1S)-1-(1-{[5-(4-{[(1R,5S,6s)-3-Azabicyclo[3.1.0]hexan-6-yl]ethynyl}phenyl)-1,2-oxazol-3-yl]methyl}-1H-imidazol-2-yl)ethan-1-ol]				8 (≈ 21.4 µM)	0.0143	0.123
C[C@H](O)c1nccn1Cc1cc(-c2ccc(C#C[C@H]3C[C@@H]3[C@@H](O)CN)cc2)on1 [Compound 15, (R)-2-Amino-1-((1 S,2S)-2-((4-(3-((2-((S)-1-hydroxyethyl)-1H-imidazol-1-yl)methyl)isoxazol-5-yl)phenyl)ethynyl)cyclopropyl)ethanol]			64 (≈ 163 µM)	16 (≈ 40.8 µM)	0.0084	
C[C@H](O)c1nccn1Cc1cc(-c2ccc(C#C[C@@H]3[C@H]4CN(C[C@H](O)CO)C[C@@H]34)cc2)on1 [Compound 11, (2S)-3-[(1R,5S,6R)-6-({4-[3-({2-[(1S)-1-Hydroxyethyl]-1H-imidazol-1-yl}methyl)-1,2-oxazol-5-yl]phenyl}ethynyl)-3-azabicyclo[3.1.0]hexan-3-yl]propan-1,2-diol]		1 (≈ 2.23 µM)	2 (≈ 4.46 µM)	8 (≈ 17.8 µM)	0.00378	0.102
C[C@H](O)c1nccn1Cc1cc(-c2ccc(C#CCCCO)cc2)on1 [Compound 1, 5-{4-[3-({2-[(1S)-1-Hydroxyethyl]-1H-imidazol-1-yl}methyl)-1,2-oxazol-5-yl]phenyl}pent-4-yn-1-ol]		1 (≈ 2.85 µM)	2 (≈ 5.69 µM)	64 (≈ 182 µM)	0.0132	0.051
C[C@H](O)c1nccn1Cc1cc(-c2ccc(C#CC3CN(C)C3)cc2)on1 [Compound 12, (1S)-1-{1-[(5-{4-[(1-Methylazetidin-3-yl)ethynyl]phenyl}-1,2-oxazol-3-yl)methyl]-1H-imidazol-2-yl}ethan-1-ol]			16 (≈ 44.1 µM)	32 (≈ 88.3 µM)	0.046	
C[C@H](O)c1nccn1Cc1cc(-c2ccc(C#C[C@@H]3[C@H]4CN(CCO)C[C@@H]34)cc2)on1 [Compound 19, (1S)-1-(1-{[5-(4-{[(1R,5S,6s)-3-(2-Hydroxyethyl)-3-azabicyclo[3.1.0]hexan-6-yl]ethynyl}phenyl)-1,2-oxazol-3-yl]methyl}-1H-imidazol-2-yl)ethan-1-ol]		0.5 (≈ 1.19 µM)	1 (≈ 2.39 µM)	8 (≈ 19.1 µM)	0.00203	0.123
C[C@H](O)c1nccn1Cc1cc(-c2ccc(C#CC3CN(C[C@H](O)CO)C3)cc2)on1 [Compound 13]			16 (≈ 37.9 µM)	32 (≈ 75.7 µM)	0.0219	0.651
C[C@H](O)c1nccn1Cc1cc(-c2ccc(C#CC3(N)CC3)cc2)on1 [Compound 4, (1S)-1-{1-[(5-{4-[(1-Aminocyclopropyl)ethynyl]phenyl}-1,2-oxazol-3-yl)methyl]-1H-imidazol-2-yl}ethan-1-ol]		0.5 (≈ 1.44 µM)	1 (≈ 2.87 µM)	64 (≈ 184 µM)	0.0167	
